The results in this text go back to PubChem BioAssay (NCI).

Test systems include COLO 205 colon; HL-60(TB) leukemia; A549 NSCLC; BT-549 breast; MDA-MB-231 breast; HS 578T breast; RXF 393 renal; T-47D breast; CCRF-CEM leukemia; OVCAR-4 ovarian.
What all share (experiment): NCI tumour cell line growth inhibition, 48 h

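Exposure lasted 48 hours, with cells grown in 96-well plates and compounds tested at five concentrations. GI50: concentration for 50% inhibition of growth. TGI: total growth inhibition.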 Some results are limits rather than exact numbers.

For `CC(C)CC(=O)NC(Nc1ccc(S(=O)(=O)Nc2ncccn2)cc1)(C(F)(F)F)C(F)(F)F`, the TGI in the assay with COLO 205 colon, in the assay with HL-60(TB) leukemia, in the assay with A549 NSCLC, in the assay on BT-549 breast, with MDA-MB-231 breast and in the assay on HS 578T breast was greater than 100 µM throughout. For the same compound, the TGI in the assay with RXF 393 renal, in the assay with T-47D breast, in the assay with CCRF-CEM leukemia and in the assay with OVCAR-4 ovarian was greater than 100 µM in each case.

Consider `CCCC(Sc1nc(N)nc2nc[nH]c12)C(=O)O` (stereo unspecified), for which the TGI in the assay with COLO 205 colon, with HL-60(TB) leukemia, in the assay on A549 NSCLC, in the assay on BT-549 breast, in the assay with MDA-MB-231 breast and in the assay on HS 578T breast was greater than 100 µM each time. For the same compound, the TGI with RXF 393 renal, in the assay with T-47D breast, in the assay on CCRF-CEM leukemia and in the assay with OVCAR-4 ovarian was greater than 100 µM in each case.

For the compound `Oc1nc(N/N=C/c2c[nH]c3ccccc23)[nH]c1/C=C1\C=Nc2ccccc21`, the TGI in the assay with COLO 205 colon stood at 26.7 µM; in the assay on HL-60(TB) leukemia, 32.9 µM; in the assay with A549 NSCLC, 42.3 µM; with BT-549 breast, 60.3 µM; in the assay with MDA-MB-231 breast it was 43.2 µM; in the assay on HS 578T breast, 40.6 µM. For the same compound, the TGI in the assay on RXF 393 renal is greater than 100 µM; in the assay on T-47D breast it was 36.5 µM; with CCRF-CEM leukemia, 25.3 µM; in the assay with OVCAR-4 ovarian, 86.1 µM.

For `CC1(C)C2CCC1(CS(=O)(=O)Nc1ccccc1)C(=O)C2` (stereo unspecified), the TGI in the assay on COLO 205 colon, in the assay with HL-60(TB) leukemia, in the assay on A549 NSCLC, with BT-549 breast, with MDA-MB-231 breast and in the assay with HS 578T breast was greater than 100 µM throughout. In addition, the TGI in the assay with RXF 393 renal, in the assay on T-47D breast, with CCRF-CEM leukemia and with OVCAR-4 ovarian was greater than 100 µM in each case.

As for `CN(C(=O)C12C3C4(C(=O)O)C1(C(=O)N(C)C(C)(C)C)C1C2(C(=O)O)C3(C(=O)N(C)C(C)(C)C)C14C(=O)N(C)C(C)(C)C)C(C)(C)C` (stereo unspecified), the TGI with COLO 205 colon, with HL-60(TB) leukemia, with A549 NSCLC, in the assay on BT-549 breast, in the assay on MDA-MB-231 breast and with HS 578T breast was greater than 100 µM each time. For the same compound, the TGI in the assay on RXF 393 renal, in the assay with T-47D breast, with CCRF-CEM leukemia and in the assay with OVCAR-4 ovarian was greater than 100 µM in each case.

`O=C1Cc2c(-c3ccc(Cl)cc3)cc(-c3ccccc3)nc2-c2ccccc2N1`: the TGI was 12.9 µM in the assay with COLO 205 colon; greater than 100 µM in the assay with HL-60(TB) leukemia; 23.2 µM in the assay with A549 NSCLC; 50.7 µM in the assay on BT-549 breast; 20.1 µM in the assay on MDA-MB-231 breast; 29.1 µM in the assay on HS 578T breast. Besides, the TGI in the assay on RXF 393 renal was 20.3 µM; in the assay with T-47D breast, 12.9 µM; with CCRF-CEM leukemia, greater than 63.3 µM; in the assay on OVCAR-4 ovarian, 26.4 µM.

`COC(c1ccsc1)C(C#N)(C#N)N=Cc1ccsc1` (stereo unspecified): the TGI is 33.1 µM with COLO 205 colon; 16.2 µM with HL-60(TB) leukemia; greater than 100 µM with A549 NSCLC; 38.7 µM with BT-549 breast; 21.3 µM with MDA-MB-231 breast; 61.7 µM in the assay on HS 578T breast. Besides, the TGI with RXF 393 renal came out at 27 µM; in the assay with T-47D breast it was 67.7 µM; in the assay with CCRF-CEM leukemia, 39 µM; with OVCAR-4 ovarian, 88 µM.

For the compound `COc1cc2c(cc1OCCCC(=O)Nc1cc(C(=O)Nc3cc(C(=O)Nc4cc(C(=O)NCCCN(C)C)n(C)c4)n(C)c3)n(C)c1)N=C[C@@H]1CCCN1C2=O`, the TGI was 3.15 µM in the assay with COLO 205 colon; 3.42 µM in the assay with HL-60(TB) leukemia; 36.1 µM with A549 NSCLC; 4.91 µM with BT-549 breast; 5.53 µM with MDA-MB-231 breast; greater than 25.2 µM in the assay on HS 578T breast. Moreover, the TGI was 3.15 µM in the assay with RXF 393 renal, 4 µM in the assay with T-47D breast, greater than 100 µM with CCRF-CEM leukemia and 3.15 µM in the assay on OVCAR-4 ovarian.

As to `O=c1c2ccccc2oc2c1ccc1ncccc12`, the TGI in the assay on COLO 205 colon was 94.4 µM; in the assay on HL-60(TB) leukemia, greater than 100 µM; in the assay with A549 NSCLC it was 22.2 µM; in the assay with BT-549 breast, 63 µM; with MDA-MB-231 breast, greater than 100 µM; in the assay on HS 578T breast, 34.8 µM. The TGI is 44.6 µM with RXF 393 renal, 31.2 µM with T-47D breast, greater than 100 µM in the assay with CCRF-CEM leukemia and 46.1 µM in the assay with OVCAR-4 ovarian.

As for `CCNc1nc(N)c(C(=O)c2ccc(Cl)cc2)s1`, the TGI with COLO 205 colon was 47 µM; in the assay with HL-60(TB) leukemia, 36 µM; in the assay on A549 NSCLC, 70.2 µM; in the assay with BT-549 breast, greater than 100 µM; in the assay with MDA-MB-231 breast, greater than 100 µM; in the assay with HS 578T breast, 36.9 µM. Besides, the TGI in the assay with RXF 393 renal is 53.5 µM; with T-47D breast it was greater than 100 µM; in the assay with CCRF-CEM leukemia it was 22.6 µM; in the assay with OVCAR-4 ovarian it was greater than 100 µM.

As for `CSc1nc2ccccc2c(=O)n1/N=C1\C(=O)N(CN2CCOCC2)c2ccc(Cl)cc21`, the TGI in the assay on COLO 205 colon was 36.6 µM; with HL-60(TB) leukemia it was 64 µM; with A549 NSCLC it was greater than 100 µM; in the assay with BT-549 breast it was 93.8 µM; in the assay with MDA-MB-231 breast, greater than 100 µM; with HS 578T breast, greater than 100 µM. Also, the TGI was 44.8 µM with RXF 393 renal, greater than 100 µM with T-47D breast, greater than 100 µM in the assay with CCRF-CEM leukemia and greater than 100 µM in the assay with OVCAR-4 ovarian.

For `CC(C)(C)c1cc(C(O)(C(=O)O)C(=O)O)cc(C(C)(C)C)c1O`, the TGI in the assay on COLO 205 colon, with HL-60(TB) leukemia, in the assay on A549 NSCLC, in the assay on BT-549 breast, in the assay with MDA-MB-231 breast and with HS 578T breast was greater than 100 µM throughout. For the same compound, the TGI in the assay with RXF 393 renal, with T-47D breast, in the assay on CCRF-CEM leukemia and with OVCAR-4 ovarian was greater than 100 µM throughout.

For `Cc1c(CNc2ccc(Cl)c(C(=O)NC(CC(=O)O)C(=O)O)c2)ccc2nc(N)nc(N)c12` (stereo unspecified), the GI50 in the assay with COLO 205 colon is 114 µM; in the assay on BT-549 breast, 666 µM; in the assay on MDA-MB-231 breast it was greater than 1000 µM; in the assay on RXF 393 renal, greater than 1000 µM; in the assay with T-47D breast, greater than 1000 µM; in the assay with OVCAR-4 ovarian, 265 µM. Besides, the TGI in the assay with COLO 205 colon, with HL-60(TB) leukemia, with A549 NSCLC, in the assay on BT-549 breast, in the assay on MDA-MB-231 breast and in the assay on HS 578T breast was greater than 1000 µM each time. Further, the TGI in the assay on RXF 393 renal, in the assay on T-47D breast, in the assay with CCRF-CEM leukemia and with OVCAR-4 ovarian was greater than 1000 µM each time.

Take `Oc1ccc2c(c1)-c1c(c3cc(O)ccc3n1CCN1CCOCC1)CC2`: the TGI was 32.2 µM in the assay with COLO 205 colon; 49.3 µM with HL-60(TB) leukemia; greater than 100 µM with A549 NSCLC; 38.2 µM with BT-549 breast; 44.1 µM in the assay on MDA-MB-231 breast; greater than 100 µM with HS 578T breast. Besides, the TGI in the assay with RXF 393 renal is 75.8 µM; in the assay on T-47D breast, greater than 100 µM; in the assay with CCRF-CEM leukemia it was 68.7 µM; with OVCAR-4 ovarian, 67.2 µM.

In the case of `COCn1c2ccc(OC(C)=O)cc2c2c(=O)oc(C)nc21`, the TGI in the assay on COLO 205 colon, in the assay with HL-60(TB) leukemia, in the assay with A549 NSCLC, in the assay with BT-549 breast, in the assay on MDA-MB-231 breast and in the assay on HS 578T breast was greater than 100 µM in each case. In addition, the TGI with RXF 393 renal, in the assay on T-47D breast, in the assay on CCRF-CEM leukemia and with OVCAR-4 ovarian was greater than 100 µM in each case.

As to `COc1ccc(-c2oc3ccc(C)cc3c(=O)c2O)cc1`, the TGI with COLO 205 colon, with HL-60(TB) leukemia, in the assay with A549 NSCLC, with BT-549 breast, in the assay on MDA-MB-231 breast and in the assay with HS 578T breast was greater than 100 µM throughout. Moreover, the TGI in the assay on RXF 393 renal, with T-47D breast, in the assay with CCRF-CEM leukemia and in the assay with OVCAR-4 ovarian was greater than 100 µM throughout.

As to `Cc1cc2c(cc1-c1cc3c(cc1C)C(C(C)C)=C(O)C(=O)/C3=C\Nc1nc(-c3ccccc3)cs1)/C(=C/Nc1nc(-c3ccccc3)cs1)C(=O)C(O)=C2C(C)C`, the TGI with COLO 205 colon was greater than 100 µM; in the assay on HL-60(TB) leukemia, greater than 100 µM; in the assay with A549 NSCLC, 57.2 µM; with BT-549 breast it was 89 µM; in the assay with MDA-MB-231 breast, 28.5 µM; in the assay on HS 578T breast, greater than 100 µM. Besides, the TGI with RXF 393 renal is 54.5 µM; in the assay on T-47D breast, greater than 100 µM; with CCRF-CEM leukemia it was 64.4 µM; in the assay with OVCAR-4 ovarian it was 86.7 µM.

With `COc1cc2c(cc1OC)C1CN3C(=O)CCC3C(O)C1c1cc(OC)c(OC)cc1-2` (stereo unspecified), the TGI in the assay with COLO 205 colon, in the assay on HL-60(TB) leukemia, with A549 NSCLC, with BT-549 breast, with MDA-MB-231 breast and in the assay with HS 578T breast was greater than 100 µM throughout. In addition, the TGI with RXF 393 renal, in the assay with T-47D breast, with CCRF-CEM leukemia and with OVCAR-4 ovarian was greater than 100 µM each time.
